Tested on: αVβ8 headpiece
Assay: Hydrogen-deuterium exchange MS, αVβ8 headpiece
Conditions: 2.20 µM αVβ8, 6.67 µM TGF-β1 ligand peptide; from KD
Experimental: Two microliters of αVβ6 and αVβ8 stock solutions (23 and 33 µM, respectively), either alone or mixed with 100 µM TGF-β1 ligand peptide, were diluted 15-fold (to 1.53 and 2.20 µM, αVβ6 and αVβ8, respectively, and 6.67 µM TGF-β1 ligand peptide) with labeling buffer (Supplementary Table 1) at 21 °C to initiate deuterium exchange. […] At time points from 10 s to 240 m, an aliquot was removed and an equal volume of quench buffer (Supplementary Table 1) was added to adjust the pH to 2.5. Each sample (46 pmol αVβ6 or 66 pmol αVβ8) was immediately subjected to liquid chromatography-mass spectrometry analysis as described in the next paragraphs and in our PRIDE submission (PXD014348). For binding experiments, protein and ligand were allowed to equilibrate for 20 min at 21 °C before deuterium labeling.
Deuterated and control samples were digested in solution with pepsin (10 mg/ml, Sigma P6887; Lot#SLBL1721V) for 5 min on ice, and then injected into an M-class Acquity UPLC with HDX technology (Waters)[32]. […]
Peptides were identified using PLGS 3.0.1 (Waters, 720001408EN) using six replicates of undeuterated αVβ6 and six replicates of undeuterated αVβ8. […] The relative amount of deuterium in each peptide was determined by subtracting the centroid mass of the undeuterated form of each peptide from the deuteratered form, at each time point, for each condition. […]

G^213RRGDLATIHG^223 [TGF-β1 ligand peptide]
predicted binding to integrin: 99.6%
